Source: patent publication US7910579B2, “Benzoxazole derivatives” (Tohoku University, priority 2006, dated 2011)
Read-outs that look alike come from different tables or passages of the source.

Columns and labels:
[1] = system: histidine-requiring Salmonella typhimurium TA100 and TA98 strains; assay: Mutagenicity Test (reverse mutation test); format: cell-based; conditions: for Relative activity (mutagenicity): irrespective of the absence or presence of S9mix; for Relative Activity in the presence of S9Mix / Relative Activity in the absence of S9Mix: reverse mutation test
Procedure: In view of their use, it is desirable that the compounds of the invention have no mutagenicity or have little mutagenicity to a level causing no problem. For investigating the gene mutagenesis of the compounds of the invention, herein carried out was a reverse mutation test with histidine-requiring Salmonella typhimurium TA100 and TA98 strains. Two tests were carried out. One is a test for dose determination test; and the other is for mutagenicity.
The test methods and the mutagenicity of the compounds of the invention are mentioned below. In the dose determination test, six doses of 0.160, 0.800, 4.00, 20.0, 100 and 500 μg/plate (common ratio 5) were tried.
As a result of the dose determination test, when the mutagenicity of the test compound was admitted, then the actual test for mutagenicity was carried out, using the dose capable of giving an accurate dose-reaction curve. When no mutagenicity of the test compound was admitted in the dose determination test and when the growth inhibition of the test cells was admitted therein, then the dose to present the growth inhibition was taken as the maximum dose; and when the growth inhibition was not admitted, then a dose of 5000 μg/plate was taken as the maximum dose. With that, the actual test for mutagenicity was carried out on the level of 6 doses (common ratio 2).
First, a test compound was dissolved or suspended in DMSO, then diluted in order to prepare test compound liquids having a varying concentration.
100 μl of a test compound liquid or a negative control (DMSO) solution was put into a sterilized test tube. Then, for the case in the absence of a metabolic activation system (−S9mix), 500 μl of 0.1 mol/liter sodium-phosphate buffer (pH 7.4) was added to it; and for the case in the presence of a metabolic activation system (+S9mix), 500 μl of S9mix was added to it.
Next, 100 μl of the test strain suspension that had been cultivated with shaking at 37° C. for 8 hours was added to it, and preincubated in a shaking thermostat at 37° C. for 20 minutes. After shaken, 2 ml of top agar was added to it, and the contents were mixed.
Next, the mixture was poured onto a minimal glucose agar plate medium (plate) and spread uniformly thereon, then the top agar was solidified, and the plate was transferred into a thermostat and incubated at 37° C. for 48 hours.
Then, the number of the colonies grown through reverse mutation was counted.
For counting it, […]. After area correction and miss-counting correction, the number of the colonies was computed. When the colony analyzer could not be used owing to the deposition of the test compound or the cell growth inhibition, then the number of the colonies was counted with the naked eye.
In case where the number of the colonies through reverse mutation increased two times or more that of the negative control and where the dose dependency or the reproducibility of the increase was admitted, then the tested sample was decided as positive. When the sample was is decided as positive, then the relative activity that indicates the relative comparative value of the intensity of the mutagenicity of the test compound was obtained according to the following formula: Relative Activity={(number of colonies per plate having the concentration)−(number of colonies per negative control plate)}/the value of concentration (mg/plate).

[2] = Evaluation of Brain-Penetration and Bone-Seeking Properties of the Labeled Compound in Mouse; format: in vivo; conditions: for Brain radioactivity / blood radioactivity / bone radioactivity: male ICR mouse, intravenous; for bone radioactivity: thighbone; for Bone-seeking property (bone accumulation) / Washout from brain: mouse; for Bone-seeking property (bone accumulation): 2 to 60 minutes after intravenous injection; for Washout from brain: compared with [^18F] BF-227
Procedure: Separated HPLC fractions containing [^18F] THK-702, [^18F] THK-761, [^18F] THK-763 or [^18F] BF-227 obtained by above mentioned synthesis of label were diluted with distilled water (about 20 mL), loaded thereon Sep-PaktC18 cartridge (produced by Waters Corporation). And the cartridge was washed by distilled water (5 to 10 mL), and labeled compound by EtOH (3 to 5 mL). A proper amount of 5% polysorbate 80-ethanol solution was added in the EtOH eluate and solvent was distilled away by a rotary evaporator with heating at 80° C. Obtained residue (mixture of the label compound and polysorbate 80) was dissolved in saline to prepare the labeled compound-containing saline. The radiochemical purity of chemical after the preparation was 95% or more.
Saline containing [^18F] BF-227, [^18F] THK-702, [^18F] THK-761 or [^18F] THK-763 was administered by intravenous injection through the tail vein of male ICR mouse (6 to 7 week), and brain-penetration and bone-seeking properties of each labeled compound was evaluated in the terms of seeking property of radioactivity in brain-tissue and bone tissue at 2, 30, 60 minutes after the injection.
The radiochemical purity of the saline containing the labeled compound used in the present invention was 95% or more, and the specific radioactivity was 18.5 to 148 GBq/μmol. 1.11 to 2.22 Mbq of the labeled compound per mouse was administrated. In evaluation of seeking property of radioactivity, the proportion of radioactivity in unit weight of evaluated tissue to all dosed radioactivity (% Injected Dose/g of tissue; % ID/g) was used as an index. Gamma counter (1480 WIZARD, produced by PerkinElmer, Inc.) was used in the measurement of radioactivity. Experimental procedures will be explained as follows. The labeled compound was administered by intravenous injection through the tail vein, 2, 30 and 60 minutes after the injection, cervical dislocation of the mouse was conducted under ether anesthesia, and blood was collected from heart rapidly. And then, whole brain (containing cerebellum and brain-stem) and thighbone of mouse were extracted. Moreover, radioactivity and the tissue weight of each sample were measured, the resulting data was used for calculating % ID/g.

[3] = molecular target: T1, Amyloid β protein 1-40 (Homo sapiens, UniProt P05067); assay: Fluorescence Congo Red Method; format: binding; conditions: compound 10 μM, amyloid β protein 5 μM; for activity at 10 µM: 1 h
T1 construct: Amyloid β protein 1-40 (bought from Peptide Laboratory); purchased Peptide Laboratory
Procedure: Next described is a screening method for the compounds of the invention. Some of the compounds of the invention could not be screened according to a Thioflavin T method, since their fluorescence wavelength overlaps with that of Thioflavin T. For such compounds, the following novel screening method was introduced. (1) Amyloid β protein 1-40 (bought from Peptide Laboratory) was dissolved in a phosphate buffer (pH 7.4) and left at 37° C. for 4 days. (2) 50 μl of Congo red dissolved in the buffer was applied to a 96-well microplate (final concentration, 0.1, 0.3, 1 μM). (3) 100 μl of amyloid β protein was added to it (final concentration 5 μM), and left as such for 30 minutes. (4) 100 μl of a test compound dissolved in the buffer was added to it (final concentration, 10 μM, and left as such for 60 minutes. (5) Using a fluorescence microplate reader (Spectra Max 190 by Molecular Device), the sample was analyzed at the optimum exciting wavelength and the test wavelength that had been previously determined. (6) The fluorescence intensity in the presence of the test compound, amyloid β protein and Congo red is represented by A; that in the presence of the test compound and Congo red is by B; that in the presence of the test compound and amyloid β protein is by C; and that in the presence of only the test compound is by D. The β structure recognition of the test compound is computed according to the following formula: β structure recognition (%) of test compound={(A−B)/(C−D)}×100. (7) It may be said that the test compound having a higher β structure recognition percentage may have higher binding specificity to amyloid β protein.

T1 sequence (P05067 672-711): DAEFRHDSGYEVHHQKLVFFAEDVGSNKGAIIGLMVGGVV

Compound	Brain radioactivity ([2]; 2 min)	blood radioactivity ([2]; 2 min)	bone radioactivity ([2]; 2 min)	Brain radioactivity ([2]; 30 min)	blood radioactivity ([2]; 30 min)	bone radioactivity ([2]; 30 min)	Brain radioactivity ([2]; 60 min)	blood radioactivity ([2]; 60 min)	bone radioactivity ([2]; 60 min)	Bone-seeking property (bone accumulation) [2]	Washout from brain [2]	also measured
N#CC(C#N)=Cc1ncc(/C=C/c2nc3ccc(OCC(CO)CF)cc3o2)s1 (stereo not shown) [THK-683, (E)-2-[2-(2,2-dicyano-ethenylthiazol-5-yl)ethenyl]-6-[(2-fluoromethyl-3-hydoxy)propoxy]benzoxazole]												Relative activity (mutagenicity) [1]: minus; Relative Activity in the presence of S9Mix [1]: minus; Relative Activity in the absence of S9Mix [1]: minus
OCC(CF)Oc1ccc2nc(/C=C/c3cnc(N4CCOCC4)s3)oc2c1 (stereo not shown) [[^18F]THK-702]	4.15 % ID/g	3.34 % ID/g	1.95 % ID/g	0.53 % ID/g	1.06 % ID/g	0.92 % ID/g	0.35 % ID/g	0.67 % ID/g	1.16 % ID/g	have not found	excellent characteristics in washout from brain more than [^18F] BF-227	
Cc1ccc2c(c1)sc(-c1ccc(N(C)C)cc1)[n+]2C.[Cl-] [Thioflavin T, reference compound]												Binding Percentage of Compound in the presence of 0.1 μM CR ([3]; Congo red 0.1 μM): 49.4%; Binding Percentage of Compound in the presence of 0.3 μM CR ([3]; Congo red 0.3 μM): 22.3%; Binding Percentage of Compound in the presence of 1 μM CR ([3]; Congo red 1 μM): 9.3%
OCC(CF)Oc1ccc2nc(/C=C/c3cnc(N4CCSCC4)s3)oc2c1 (stereo not shown) [THK-767, (E)-6-[(1-fluoromethyl-2-hydroxy)ethoxy]-2-[2-(2-thiomorpholinothiazol-5-yl)ethenyl]benzoxazole]												activity at 10 µM ([3]; Congo red 0.1 μM, read-out: Binding Percentage of Compound in the presence of 0.1 μM CR): 60%; activity at 10 µM ([3]; Congo red 0.3 μM, read-out: Binding Percentage of Compound in the presence of 0.3 μM CR): 29.9%; activity at 10 µM ([3]; Congo red 1 μM, read-out: Binding Percentage of Compound in the presence of 1 μM CR): 15.9%
CNc1ncc(/C=C/c2nc3ccc(OC(CO)CF)cc3o2)s1 (stereo not shown) [[^18F]THK-761]	1.67 % ID/g	3.16 % ID/g	1.36 % ID/g	0.22 % ID/g	0.78 % ID/g	0.88 % ID/g	0.13 % ID/g	0.34 % ID/g	0.95 % ID/g	have not found	excellent characteristics in washout from brain more than [^18F] BF-227	
CN(C)c1ncc(/C=C/c2nc3ccc(OC(CO)CF)cc3o2)s1 (stereo not shown) [[^18F]THK-763]	4.64 % ID/g	3.65 % ID/g	1.84 % ID/g	0.53 % ID/g	1.19 % ID/g	0.88 % ID/g	0.28 % ID/g	0.64 % ID/g	1.38 % ID/g	have not found	excellent characteristics in washout from brain more than [^18F] BF-227	
CC1(C)c2ccccc2N2CCC(=O)NC21/C=C/c1ccc(N2CCOCC2)cc1 (stereo not shown) [THK-336]												Relative activity (mutagenicity) [1]: minus; Relative Activity in the presence of S9Mix [1]: minus; Relative Activity in the absence of S9Mix [1]: minus
CN(C)c1ncc(C=Cc2nc3ccc(OCCF)cc3o2)s1 [[^18F]BF-227, 2-[2-(2-dimethylaminothiazol-5-yl)ethenyl]-6-(2-fluoroethoxy)benzoxazol, reference compound]	6.05 % ID/g	2.93 % ID/g	1.59 % ID/g	1.91 % ID/g	2.14 % ID/g	4.38 % ID/g	1.67 % ID/g	2.09 % ID/g	7.04 % ID/g	significant time-dependent bone-seeking property after the injection has been found		
